“And” between values parts separate entries of the source, which are not always exact repeats. Equal entries are not always repeated. Where two headings read alike, the source gives them in different places.
How the values were obtained:
purified CaMKIIα [1] = system: purified CaMKIIα; design: method as in PMID 29294328, PMID 8385100, PMID 19857459, PMID 14558884; details: read-out: previously published Km values for ATP; cited from earlier work
purified CaMKIIα [2] = experiment: Km of CaMKII for ATP (GST-GluA1 S831 phosphorylation with increasing ATP); format: biochemical; details: 30 °C, 4 independent experiments, read-out: CaMKII Michaelis-Menten constant (Km) for ATP
Method: CaMKII-mediated phosphorylation of GluA1 S831 or GluN2B S1303 was measured by in vitro kinase reaction with a purified GST–GluA1 C-terminal tail or GST-GluN2B C-terminal tail. Reactions contained 40 nM CaMKII, 1 μM GST–GluA1, 50 mM PIPES, pH 7.1, 2 mM CaCl2, 10 mM MgCl2, 1 μM calmodulin, 1–4 mM ATP and 1 μM okadaic acid. Negative controls were prepared without ATP. Reactions were done at 30 °C for 20 s; reactions were stopped by adding SDS loading buffer and incubation in a boiling water bath for 5 min. GST, phospho-S831, CaMKII, phospho-T286 or phospho-S1303 were detected in the samples by immunoblot analysis. […]
Data are presented as mean values +/− SEM. a, Comparison of AS105 vs AS283 structure. b, Representative Immunoblots and quantification of in vitro kinase reactions at 30 °C with increasing ATP concentration measuring purified CaMKIIα phosphorylation of GST-GluA1 S831. […] Correlation indices before and after ionomycin-induced colocalization of GFP-CaMKII and mCherry-2BC under vehicle or 10 μM AS105 conditions (n = 23,18 cells; ***p < 0.001, RM two-way ANOVA with Šídák’s multiple comparisons test). Scale bar indicates 10 μm. […] CaMKII synaptic enrichment was measured before and after cLTP (n = 11,10 cells; *p < 0.05; RM two-way ANOVA with Šídák’s multiple comparisons test). […]

[3] = target: purified CaMKIIα binding to GST–GluN2B-c WT (Homo sapiens, UniProt Q9UQM7); experiment: CaMKII binding to immobilized GST–GluN2B-c in vitro; details: Ca2+/CaM, 1 mM ATP; GST–GluN2B-c WT
Method: CaMKII–GluN2B binding assays were done as described[9],[13],[25]. Briefly, GST–GluN2B-c tail (GST–2BC) was immobilized on anti-GST antibody-coated microtiter plates (Thermo Scientific), blocked for 30 min with 5% BSA and then overlaid with […] CaMKII (subunit concentration) in PIPES-buffered saline (pH 7.2) containing 2 mM Ca^2+, 1 μM CaM, 1 mM Mg^2+, 0.1% BSA and 0.1% Tween-20 for 20 min at room temperature. […] After extensive washes in buffer containing 1 mM EGTA, GST–2BC and bound CaMKII were eluted for 10 min in SDS loading buffer at 95 °C. Bound CaMKII was measured via immunoblot.

purified CaMKIIα [4] = experiment: Km of CaMKII for ATP (GST-GluA1 S831 phosphorylation with increasing ATP); format: biochemical

Km (purified CaMKIIα [2]): 33.3 µM
bound CaMKIIα (immunoblot, relative) [3]: 4.397 and 5.355 and 6.655 and 4.688
CaMKIIα phosphorylation of GST-GluA1 S831 (relative) (purified CaMKIIα [4]; 1.5625 uM ATP): 0
CaMKIIα phosphorylation of GST-GluA1 S831 (relative) (purified CaMKIIα [4]; 25 uM ATP): 0.594 and 0.4443 and 0.666 and 0.3478
CaMKIIα phosphorylation of GST-GluA1 S831 (relative) (purified CaMKIIα [4]; 100 uM ATP): 0.9012 and 0.7992 and 1.006 and 0.6032
CaMKIIα phosphorylation of GST-GluA1 S831 (relative) (purified CaMKIIα [4]; 200 uM ATP): 1.078 and 0.8135 and 1.004 and 0.7632
CaMKIIα phosphorylation of GST-GluA1 S831 (relative) (purified CaMKIIα [4]; 400 uM ATP): 1.127 and 0.9367 (2×)
Structure (SMILES): Nc1ncnc2c1ncn2[C@@H]1O[C@H](COP(=O)(O)OP(=O)(O)OP(=O)(O)O)[C@@H](O)[C@H]1O [ATP]
Km (purified CaMKIIα [1]): 8 to 127 µM
